In the supplement of paper PMC13207355:

How the values were obtained:
Details in all cases: exposure time: 72 h
[1] = test system: E13 (patient-derived glioblastoma stem cells of classical subtype); test: surviving fraction (nuclei count normalised to DMSO); higher = more cells surviving (less toxic)
[2] = test system: E21 (patient-derived glioblastoma stem cells of mesenchymal subtype); test: as above
[3] = test system: E28 (patient-derived glioblastoma stem cells of classical subtype); test: as above
[4] = test system: E34 (patient-derived glioblastoma stem cells of proneural subtype); test: as above
[5] = test system: E57 (patient-derived glioblastoma stem cells of mesenchymal subtype); test: as above
[6] = test system: FT3469 (normal neural stem cell line); test: as above
[7] = test system: E13; test: phenotypic distance (Euclidean, principal components) from DMSO controls (arbitrary units); higher = stronger morphological change
[8] = test system: E21; test: as above
[9] = test system: E28; test: as above
[10] = test system: E34; test: as above
[11] = test system: E57; test: as above
[12] = test system: FT3469; test: as above
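For phenotypic distance (Euclidean, principal components) from DMSO controls in this document: cell Painting imaging in 384-well plates, CellProfiler features reduced to at least 20 principal components, Euclidean distance versus same-plate DMSO vehicle wells (0.1% v/v), median over six images per well.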
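For surviving fraction (nuclei count normalised to DMSO) in this document: nuclei counted by high-content imaging of Hoechst-stained cells in laminin-coated 384-well plates, relative to 0.1% DMSO vehicle wells, with staurosporine as cell-death control.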

Cc1ccc(NC(=O)c2ccc3c(c2)OCCO3)cc1NC(=O)c1ccc2nc(OCCN3CCCC3)ccc2c1
Details | phenotypic distance | surviving fraction
[1], 4.1 nM | – | 0.567
[1], 4.11523 nM | – | 0.579
[1], 12.3 nM | – | 0.474
[1], 12.34567901 nM | – | 0.507
[1], 37 nM | – | 0.421
[1], 37.037 nM | – | 0.402
[1], 111.1 nM | – | 0.347
[1], 111.1111111 nM | – | 0.456
[1], 333.3 nM | – | 0.332
[1], 333.333 nM | – | 0.347
[1], 1000 nM | – | 0.2728
[1], 3000 nM | – | 0.245
[2], 4.1 nM | – | 0.572
[2], 4.11523 nM | – | 0.511
[2], 12.3 nM | – | 0.385
[2], 12.34567901 nM | – | 0.434
[2], 37 nM | – | 0.402
[2], 37.037 nM | – | 0.406
[2], 111.1 nM | – | 0.276
[2], 111.1111111 nM | – | 0.306
[2], 333.3 nM | – | 0.28
[2], 333.333 nM | – | 0.23
[2], 1000 nM | – | 0.235
[2], 3000 nM | – | 0.159
[3], 4.1 nM | – | 0.547
[3], 4.11523 nM | – | 0.493
[3], 12.3 nM | – | 0.385
[3], 12.34567901 nM | – | 0.432
[3], 37 nM | – | 0.366
[3], 37.037 nM | – | 0.346
[3], 111.1 nM | – | 0.309
[3], 111.1111111 nM | – | 0.32
[3], 333.3 nM | – | 0.309
[3], 333.333 nM | – | 0.242
[3], 1000 nM | – | 0.317
[3], 3000 nM | – | 0.285
[4], 4.1 nM | – | 0.581
[4], 4.11523 nM | – | 0.432
[4], 12.3 nM | – | 0.436
[4], 12.34567901 nM | – | 0.574
[4], 37 nM | – | 0.548
[4], 37.037 nM | – | 0.385
[4], 111.1 nM | – | 0.505
[4], 111.1111111 nM | – | 0.555
[4], 333.3 nM | – | 0.486
[4], 333.333 nM | – | 0.376
[4], 1000 nM | – | 0.494
[4], 3000 nM | – | 0.464
[5], 4.1 nM | – | 0.335
[5], 4.11523 nM | – | 0.321
[5], 12.3 nM | – | 0.23
[5], 12.34567901 nM | – | 0.214
[5], 37 nM | – | 0.296
[5], 37.037 nM | – | 0.268
[5], 111.1 nM | – | 0.215
[5], 111.1111111 nM | – | 0.277
[5], 333.3 nM | – | 0.209
[5], 333.333 nM | – | 0.246
[5], 1000 nM | – | 0.199
[5], 3000 nM | – | 0.17
[6], 4.1 nM | – | 0.613
[6], 4.11523 nM | – | 0.62
[6], 12.3 nM | – | 0.72
[6], 12.34567901 nM | – | 0.67
[6], 37 nM | – | 0.636
[6], 37.037 nM | – | 0.618
[6], 111.1 nM | – | 0.608
[6], 111.1111111 nM | – | 0.667
[6], 333.3 nM | – | 0.674
[6], 333.333 nM | – | 0.615
[6], 1000 nM | – | 0.602
[6], 3000 nM | – | 0.484
[7], 4.1 nM | 2.33 | –
[7], 4.11523 nM | 2.3 | –
[7], 12.3 nM | 2.75 | –
[7], 12.34567901 nM | 2.91 | –
[7], 37 nM | 2.97 | –
[7], 37.037 nM | 2.96 | –
[7], 111.1 nM | 2.97 | –
[7], 111.1111111 nM | 2.53 | –
[7], 333.3 nM | 3.19 | –
[7], 333.333 nM | 3.19 | –
[7], 1000 nM | 4.14 | –
[7], 3000 nM | 4.93 | –
[8], 4.1 nM | 1.96 | –
[8], 4.11523 nM | 2.3 | –
[8], 12.3 nM | 3.3 | –
[8], 12.34567901 nM | 2.79 | –
[8], 37 nM | 4.37 | –
[8], 37.037 nM | 3.31 | –
[8], 111.1 nM | 5.55 | –
[8], 111.1111111 nM | 4.4 | –
[8], 333.3 nM | 4.63 | –
[8], 333.333 nM | 5.16 | –
[8], 1000 nM | 4.03 | –
[8], 3000 nM | 3.92 | –
[9], 4.1 nM | 2.24 | –
[9], 4.11523 nM | 2.33 | –
[9], 12.3 nM | 3.06 | –
[9], 12.34567901 nM | 2.58 | –
[9], 37 nM | 3.23 | –
[9], 37.037 nM | 2.95 | –
[9], 111.1 nM | 3.14 | –
[9], 111.1111111 nM | 2.92 | –
[9], 333.3 nM | 2.79 | –
[9], 333.333 nM | 3.14 | –
[9], 1000 nM | 2.41 | –
[9], 3000 nM | 2.42 | –
[10], 4.1 nM | 1.52 | –
[10], 4.11523 nM | 2.43 | –
[10], 12.3 nM | 2.63 | –
[10], 12.34567901 nM | 1.82 | –
[10], 37 nM | 2.02 | –
[10], 37.037 nM | 2.96 | –
[10], 111.1 nM | 2.75 | –
[10], 111.1111111 nM | 2.28 | –
[10], 333.3 nM | 3 | –
[10], 333.333 nM | 3.8 | –
[10], 1000 nM | 2.97 | –
[10], 3000 nM | 3.82 | –
[11], 4.1 nM | 2.44 | –
[11], 4.11523 nM | 2.93 | –
[11], 12.3 nM | 3.38 | –
[11], 12.34567901 nM | 3.54 | –
[11], 37 nM | 3.19 | –
[11], 37.037 nM | 3.43 | –
[11], 111.1 nM | 3.22 | –
[11], 111.1111111 nM | 3.19 | –
[11], 333.3 nM | 3.67 | –
[11], 333.333 nM | 3.36 | –
[11], 1000 nM | 3.79 | –
[11], 3000 nM | 3.67 | –
[12], 4.1 nM | 2.71 | –
[12], 4.11523 nM | 2.72 | –
[12], 12.3 nM | 3.04 | –
[12], 12.34567901 nM | 2.97 | –
[12], 37 nM | 3.5 | –
[12], 37.037 nM | 3.59 | –
[12], 111.1 nM | 3.07 | –
[12], 111.1111111 nM | 3.24 | –
[12], 333.3 nM | 4.42 | –
[12], 333.333 nM | 3.16 | –
[12], 1000 nM | 2.96 | –
[12], 3000 nM | 3.35 | –
